The numbers were not newly measured in patent publication US20060142395A1, “Modulation of intracellular calcium signaling by N-acylethanolamines” (University of North Texas Health Science Center, priority 2003, published 2006), which cites them from elsewhere.

Bounds are passed on as bounds.

The subject of the series is rats and mice. As to conditions: transient ischemia with reperfusion and permanent occlusion; cited from earlier work.

`C[C@]12CC[C@@H]3c4ccc(O)cc4CC[C@H]3[C@@H]1CC[C@@H]2O` [17β-estradiol]: the protection is reported as above 50%.
